Experimental data published in the NIST ThermoML archive (doi:10.1021/je060271a).

Details: 323.15 K, Liquid, Vibrating tube method

CCCCCCC(=O)OCC(COC(=O)CCCCCC)(COC(=O)CCCCCC)COC(=O)CCCCCC [pentaerythritol tetraheptanoate]
Details | mass density [kg/m3]
21056 kPa | 969.3
21077 kPa | 969.3
21094 kPa | 969.4
21132 kPa | 969.3
21278 kPa | 969.4
21299 kPa | 969.5
21316 kPa | 969.5
21334 kPa | 969.5
21352 kPa | 969.4
21372 kPa | 969.6
21390 kPa | 969.6
21408 kPa | 969.8
21430 kPa | 969.6
21448 kPa | 969.6
21466 kPa | 969.5
21483 kPa | 969.6
21504 kPa | 969.5
21522 kPa | 969.6
21540 kPa | 969.7
21562 kPa | 969.6
21580 kPa | 969.6
21601 kPa | 969.7
21619 kPa | 969.8
21637 kPa | 969.7
21659 kPa | 969.7
21677 kPa | 969.8
21695 kPa | 969.8
21716 kPa | 969.7
21734 kPa | 969.8
21753 kPa | 969.7
21775 kPa | 969.9
21793 kPa | 969.8
21830 kPa | 969.9
21852 kPa | 969.8
21871 kPa | 969.8
21930 kPa | 970
21950 kPa | 969.9
21968 kPa | 969.8
21990 kPa | 969.9
22070 kPa | 970
22089 kPa | 969.9
22112 kPa | 969.9
22131 kPa | 970
22150 kPa | 969.9
22173 kPa | 970
22193 kPa | 970
22213 kPa | 970
22232 kPa | 970
22275 kPa | 970.2
22313 kPa | 970.1
22336 kPa | 970.1
22356 kPa | 970.1
22380 kPa | 970.1
22399 kPa | 970.2
22419 kPa | 970.2
22442 kPa | 970.1
22463 kPa | 970.2
22483 kPa | 970.2
22502 kPa | 970.2
22522 kPa | 970.2
22546 kPa | 970.1
22566 kPa | 970.2
22585 kPa | 970.4
22609 kPa | 970.3
22629 kPa | 970.3
22653 kPa | 970.3
22717 kPa | 970.3
22758 kPa | 970.4
22779 kPa | 970.4
22804 kPa | 970.4
22824 kPa | 970.4
22848 kPa | 970.5
22869 kPa | 970.4
22889 kPa | 970.4
22913 kPa | 970.4
23043 kPa | 970.5
23090 kPa | 970.5
23337 kPa | 970.7
23406 kPa | 970.7
23640 kPa | 970.9
23662 kPa | 970.8
23684 kPa | 970.9
23706 kPa | 970.9
23734 kPa | 970.9
23970 kPa | 971.1
23993 kPa | 971.2
24020 kPa | 971.1
24043 kPa | 971
24070 kPa | 971.1
24093 kPa | 971.2
24116 kPa | 971.2
24143 kPa | 971.2
24166 kPa | 971.1
24190 kPa | 971.2
24215 kPa | 971.1
24242 kPa | 971.3
24265 kPa | 971.3
24289 kPa | 971.3
24317 kPa | 971.3
24340 kPa | 971.4
24364 kPa | 971.3
24387 kPa | 971.3
24415 kPa | 971.3
24466 kPa | 971.4
24515 kPa | 971.5
24540 kPa | 971.4
24564 kPa | 971.4
24616 kPa | 971.5
24669 kPa | 971.6
24770 kPa | 971.5
25086 kPa | 971.7
25112 kPa | 971.8
25142 kPa | 971.7
25168 kPa | 971.8
25198 kPa | 971.9
25224 kPa | 971.9
25249 kPa | 971.7
25275 kPa | 971.9
25306 kPa | 971.9
25330 kPa | 971.9
25356 kPa | 971.9
25439 kPa | 971.9
25465 kPa | 972
25496 kPa | 972
25522 kPa | 972.1
25549 kPa | 972
25575 kPa | 972
25607 kPa | 972.1
25663 kPa | 972.2
25691 kPa | 972.2
25743 kPa | 972.1
25775 kPa | 972.2
25801 kPa | 972.2
26029 kPa | 972.3
26061 kPa | 972.3
26121 kPa | 972.4
26148 kPa | 972.5
26175 kPa | 972.3
26208 kPa | 972.5
26235 kPa | 972.4
26263 kPa | 972.6
26296 kPa | 972.3
26325 kPa | 972.4
26352 kPa | 972.5
26386 kPa | 972.5
26413 kPa | 972.5
26441 kPa | 972.4
26475 kPa | 972.6
26503 kPa | 972.6
26531 kPa | 972.6
26559 kPa | 972.6
26594 kPa | 972.6
26622 kPa | 972.6
26658 kPa | 972.7
26682 kPa | 972.6
26717 kPa | 972.7
26745 kPa | 972.7
26901 kPa | 972.8
26930 kPa | 972.9
26959 kPa | 972.9
26995 kPa | 972.9
27304 kPa | 973.1
27340 kPa | 973.1
27371 kPa | 973
27401 kPa | 973.1
27437 kPa | 973.1
27468 kPa | 973.1
27498 kPa | 973
27534 kPa | 973.2
27632 kPa | 973.3
27663 kPa | 973.3
27694 kPa | 973.3
27794 kPa | 973.3
27926 kPa | 973.5
27963 kPa | 973.5
27996 kPa | 973.5
28065 kPa | 973.4
28096 kPa | 973.6
28128 kPa | 973.5
28160 kPa | 973.5
28199 kPa | 973.6
28231 kPa | 973.6
28270 kPa | 973.6
28302 kPa | 973.6
28334 kPa | 973.7
28471 kPa | 973.7
28511 kPa | 973.9
28544 kPa | 973.6
28577 kPa | 973.8
28617 kPa | 973.8
28650 kPa | 973.8
28689 kPa | 973.9
28723 kPa | 973.8
28864 kPa | 973.9
29014 kPa | 974
29565 kPa | 974.4
29607 kPa | 974.4
29642 kPa | 974.4
29686 kPa | 974.4
29724 kPa | 974.5
29761 kPa | 974.5
29798 kPa | 974.5
29834 kPa | 974.6
29878 kPa | 974.6
29915 kPa | 974.6
29959 kPa | 974.6
29995 kPa | 974.7
30032 kPa | 974.6
30076 kPa | 974.8
30114 kPa | 974.7
30151 kPa | 974.7
30237 kPa | 974.8
30274 kPa | 974.7
30312 kPa | 974.8
30358 kPa | 974.7
30396 kPa | 974.8
30434 kPa | 974.9
32025 kPa | 975.7
32076 kPa | 975.7
32119 kPa | 975.8
32170 kPa | 975.9
32213 kPa | 975.8
32256 kPa | 975.9
32308 kPa | 976
